Results reported in patent publication US20160102336A1, “FLUORESCENT PROBE FOR DETECTING ACTIVITY OF CALPAIN” (THE UNIVERSITY OF TOKYO, priority 2013, published 2016).
*1 amine or outer side, *2 acyl side, *3 side chain or, on linkers, in order; H or OH if unused. Where a SMILES comes first, the peptide text is derived from it. The star is where a group is joined. X1 = Cc1ccccc1C1=C2C=CC(=N)C=C2[Si](C)(C)c2cc(N*)ccc21; Suc = O=C(CCC(=O)[*:2])[*:1]

How the values were obtained:
[1] = Measurement of the optical characteristics; format: physicochemical; details: for Absmax / Emmax / Φn / ε: 0.1 sodium phosphate buffer with pH 3 containing 1% DMSO
Procedure: The optical characteristics of Suc-LLVY-SiR600 and Boc-LM-SiR600 were measured in a 0.1 sodium phosphate buffer with pH 3 containing 1% DMSO.

[2] = system: Calpain activity in HeLa cells; assay: Imaging of calpain activity in HeLa cells (confocal microscope); format: cell-based
Procedure: Hela cells were incubated for 10 minutes at 37° C. using (a) Hank's balanced salt solution (HBSS) containing DMSO as a control, and (b) HBSS containing […] calpeptin, and further incubation for 20 minutes was carried out in 2-μM Suc-LLVY-SiR600. A fluorescence image and a differential interference image were then taken using a confocal microscope. The scale bar in the drawings is 20 μm.
(§1) Statistical analysis was carried out using Student's t-test (n=18).

[3] = system: Calpain activity in A549 cells; assay: Imaging of calpain activity in A549 cells (confocal microscope); format: cell-based; details: 2-μM Suc-LLVY-SiR600, 20 minutes, HBSS, 37° C.
Procedure: A549 cells were incubated for 10 minutes at 37° C. using (a) Hank's balanced salt solution (HBSS) containing DMSO as a control, and (b) HBSS containing 20-μM calpeptin, and further incubation for 20 minutes was carried out in 2-μM Suc-LLVY-SiR600. A fluorescence image and a differential interference image were then taken using a confocal microscope. The scale bar in the drawings is 20 μm.
as §1

[4] = target: T1, calpain-1 (Homo sapiens, UniProt P07384); assay: Evaluation as a calpain fluorescent probe (fluorescence spectrum after addition of calpain-1); format: biochemical
T1 sequence (P07384 1-714): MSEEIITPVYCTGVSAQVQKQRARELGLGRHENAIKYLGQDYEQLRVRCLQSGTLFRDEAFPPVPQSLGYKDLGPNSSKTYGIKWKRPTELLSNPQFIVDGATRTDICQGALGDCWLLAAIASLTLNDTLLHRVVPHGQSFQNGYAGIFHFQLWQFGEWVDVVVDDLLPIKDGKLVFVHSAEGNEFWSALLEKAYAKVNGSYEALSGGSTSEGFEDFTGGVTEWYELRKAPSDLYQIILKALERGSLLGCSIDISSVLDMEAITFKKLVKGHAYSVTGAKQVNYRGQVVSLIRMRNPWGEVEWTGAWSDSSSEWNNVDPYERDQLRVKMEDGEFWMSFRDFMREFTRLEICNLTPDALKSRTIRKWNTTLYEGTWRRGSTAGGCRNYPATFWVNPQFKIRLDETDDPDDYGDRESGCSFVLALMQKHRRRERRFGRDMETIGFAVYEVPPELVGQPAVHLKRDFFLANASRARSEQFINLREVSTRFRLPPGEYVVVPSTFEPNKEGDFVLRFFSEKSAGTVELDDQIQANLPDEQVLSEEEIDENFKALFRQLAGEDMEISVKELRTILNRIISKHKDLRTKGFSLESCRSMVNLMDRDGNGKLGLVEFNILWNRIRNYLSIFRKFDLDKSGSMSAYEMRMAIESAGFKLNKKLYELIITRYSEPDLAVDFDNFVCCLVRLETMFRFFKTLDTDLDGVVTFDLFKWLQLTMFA
T1 sequence (P04632 1-268 partner): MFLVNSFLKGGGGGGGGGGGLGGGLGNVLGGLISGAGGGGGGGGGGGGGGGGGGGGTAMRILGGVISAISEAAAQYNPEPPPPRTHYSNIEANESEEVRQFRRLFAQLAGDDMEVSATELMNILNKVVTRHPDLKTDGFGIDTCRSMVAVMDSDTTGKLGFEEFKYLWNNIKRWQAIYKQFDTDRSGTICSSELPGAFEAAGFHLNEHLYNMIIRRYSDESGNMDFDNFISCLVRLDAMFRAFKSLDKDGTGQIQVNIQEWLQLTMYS
Procedure: FIGS. 1(c) to 1(e) show the fluorescence spectrum 10 to 60 minutes later from addition of 5 μg calpain-1 to the Suc-LLVY-SiR600 solution (2 μM).
In FIGS. 1(b) to 1(e), the reaction was carried out in a 0.75-mL of 20-mM HEPES buffer solution (pH 7.4) containing 100-μM DTT, 10% glycerol, 0.1% CHAPS, 100-mM NaCl, 1-mM EDTA, and 1.5-mM CaCl2, and containing 1% DMSO as a cosolvent.
In FIG. 1(d), the reaction was carried out in the absence of 1.5-mM CaCl2, and in FIG. 1(e), the reaction was carried out in the presence of 1-μM calpeptin.
The reaction temperature was 25° C. in FIGS. 1(b), 1(d), and 1(e), and 37° C. in FIG. 1(c).
In FIGS. 2(b) and 2(c), the reaction was carried out in a 0.75-mL of 20-mM HEPES buffer solution (pH 7.4) containing 100-μM DTT, 10% glycerol, 0.1% CHAPS, 100-mM NaCl, 1-mM EDTA, and 1.5-mM CaCl2, and containing 1% DMSO as a cosolvent. In FIG. 2(c), the reaction was carried out in the presence of 1-μM calpeptin, and in FIG. 2(b), the reaction was carried out in the absence of calpeptin.
The reaction temperature was 25° C. in FIGS. 2(b) and 2(c), and the excitation wavelength was 593 nm.

Compound | Absmax [1] | Emmax [1] | Φn [1] | ε [1] | visualization of calpain activity in HeLa cells ([2]; 2-μM Suc-LLVY-SiR600, 20 minutes, HBSS, 37° C.) | visualization of calpain activity in A549 cells [3] | increase in fluorescence in a solution that does not contain Ca^2+ ([4]; probe 2 μM, 5 μg calpain-1, 10 to 60 minutes, absence of 1.5-mM CaCl2, 25° C.) | fluorescence after the reaction with calpain-1 ([4]; probe 2 μM, 5 μg calpain-1, 180 minutes, HEPES buffer pH 7.4 with 1.5-mM CaCl2, 25° C., excitation 593 nm) | fluorescence before the reaction with calpain-1 ([4]; probe 2 μM, excitation 593 nm, before addition of calpain-1, 25° C.) | absorption of light near maximum absorption (593 nm) of 2MeSiR600 ([1]; near 593 nm) | fluorescence intensity in HeLa cells on addition of calpeptin ([2]; 20-11M calpeptin 10 minutes at 37° C., then 2-μM Suc-LLVY-SiR600 20 minutes) | increase in fluorescence of Boc-LM-SiR600 with calpain-1 when calpeptin was added ([4]; 1-μM calpeptin, Boc-LM-SiR600 2 μM, 5 μg calpain-1, 25° C.) | increase in fluorescence of Suc-LLVY-SiR600 with calpain-1 when calpeptin is added ([4]; 1-μM calpeptin, Suc-LLVY-SiR600 2 μM, 5 μg calpain-1, 25° C.)
2Me SiR600 [reference compound] | 593 nm | 613 nm | 0.38 | 91,000 M^−1cm^−1 | – | – | – | – | – | – | – | – | –
Cc1ccccc1C1=C2C=CC(=N)C=C2[Si](C)(C)c2cc(NC(=O)[C@H](Cc3ccc(O)cc3)NC(=O)[C@@H](NC(=O)[C@H](CC(C)C)NC(=O)[C@H](CC(C)C)NC(=O)CCC(=O)O)C(C)C)ccc21 [Suc-LLVY-SiR600] (Suc-LLVY-X1) | 497 nm | 590 nm | 0.03 | 25,000 M^−1cm^−1 | calpain activity in HeLa cells can be monitored | calpain activity in cells was successfully visualized | an increase in fluorescence does not occur | high-intensity fluorescence was observed | fluorescence was mostly unobserved | did not absorb light | – | – | –
CCCC[C@@H](C=O)NC(=O)[C@H](CC(C)C)NC(=O)OCc1ccccc1 [calpeptin, reference compound] | – | – | – | – | – | – | – | – | – | – | fluorescence intensity in the cells was reduced | an increase in fluorescence did not occur | an increase in fluorescence does not occur
